# No end group written: not given here.
# Key:
# [1] = target: T1, CCL18 (Homo sapiens, UniProt P55774); test: Fluorescence polarisation (anisotropy) assay; format: binding; conditions: fluorescence polarisation displacement assay
# T1 construct: purchased Peprotech
# T1 sequence (P55774 21-89): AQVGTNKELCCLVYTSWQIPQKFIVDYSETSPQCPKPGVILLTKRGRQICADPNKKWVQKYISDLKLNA
# Procedure: (§1) FIG. 14(B). Fluorescence polarisation assay showing binding of chemokines to P672_PEP-FITC. The measured fluorescence anisotropy (y-axis) of P672_PEP-FITC (50 nM) following binding to a fixed dose (1 μM)) of CCL7, CCL8, CCL18 and CXCL1 (negative control). […] Statistical significance was determined using one-way ANOVA with Sidak's correction for multiple comparisons using Graph Pad Prism 6. **=p<0.005, ****=P<0.00005, ns=not significant.
# (§2) FIG. 15(C). Displacement of P672_PEP-FITC from CCL18 by P672_PEP. In each case 100 μM (++) or […] (+) of P672_PEP was incubated with P672_PEP-FITC (50 nM)/chemokine (1 μM CCL7 and CCL18; 500 nM CCL8) and the resulting anisotropy measured. A peptide with the P672_PEP sequence scrambled ([…]) served as a negative control (P672_PEP_SCRAM; […]). Experiment carried out in triplicate where each data point is the average of one experiment carried out in technical triplicate. Mean with SEM shown and statistical significance was determined using one-way ANOVA with Sidak's correction for multiple comparisons using Graph Pad Prism 6. *=p<0.05, ***=p<0.0005, ****=P<0.00005, ns=not significant.
# (§3) Fluorescence polarization assays were performed using a Clariostar (BMG Tech) plate reader with the supplied FITC excitation and emission filters using 96 half area well plates (Corning). The buffer used (FP assay buffer) was 50 mM HEPES, 150 mM NaCl, 0.1% BSA, 0.002% TWEEN-20, 0.2% DMSO, pH 7.4 and the final volume in each well was 30 μL. Polarization was converted to anisotropy using the equation A=(2*P)/(3−P) where P is polarization and A is anisotropy. For each peptide tested the gain was set to 35 mP and adjusted to a well containing fluorescent peptide only. The polarization of the emitted light in the FITC emission channel was then determined. Experiments were performed as two technical and three biological replicates. Screening of P672 peptide fragments was achieved through incubation of each peptide (50 nM) with 1 μM CCL8 (Peprotech) for 30 minutes in FP assay buffer and the resulting anisotropy of the emitted light determined as above. The chemokine cross binding screen was performed by incubating 1 μM chemokine (Peprotech) with 50 nM BK1.1FITC for half an hour in FP assay buffer and the resulting anisotropy of the emitted light determined as above. To monitor BK1.1FITC Ala mutants of binding to CCL8, 50 nM labelled peptide was incubated with varying concentrations of recombinant CCL8 (0-25 μM, final) in 30 μL FP assay buffer for 30 minutes and the resulting anisotropy of the emitted light determined as above. The anisotropy was plotted as a function of CCL8 concentration and fitted to the equation: Y=Bmax*X/(KD+X)+NS*X+Background, where Y is the measured anisotropy, X is the concentration of CCL8 added, Bmax is the maximum binding, KD is the equilibrium dissociation constant, NS is the slope of the nonlinear regression and Background is the anisotropy when no CCL8 is present, in Graph Pad Prism. Displacement assays were carried out with CCL7, CCL8, and CCL18 (Peprotech, 1 μM). […] For all FP assays, the experiments were carried out as two technical and three biological replicates.
# [2] = target: T2, CCL7 (Homo sapiens, UniProt P80098); test: Fluorescence polarisation (anisotropy) assay; format: binding; conditions: fluorescence polarisation displacement assay
# T2 construct: purchased Peprotech
# Procedure: as §1, §2, §3
# T2 sequence (P80098 24-99): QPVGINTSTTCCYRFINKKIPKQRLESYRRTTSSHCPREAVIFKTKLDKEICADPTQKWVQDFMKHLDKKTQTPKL
substance,measurement,setting,value
EDEDYEDFFKPVTAYF-NH2 [BK1.1],Displacement of FITC-labelled peptide from CCL18 by unlabelled peptide,[1],indicate its binding
same,Displacement of FITC-labelled peptide from CCL18 by unlabelled peptide,[1]; listed as P672_PEP,able to displace labelled peptide bound to chemokine
same,Displacement of FITC-labelled peptide from CCL7 by unlabelled peptide,[2],indicate its binding
same,Displacement of FITC-labelled peptide from CCL7 by unlabelled peptide,[2]; listed as P672_PEP,able to displace labelled peptide bound to chemokine

# From US20200247855A1, “THERAPY AND DIAGNOSTICS” (OXFORD UNIVERSITY INNOVATION LIMITED, priority 2017, published 2020)
